Laboratory results: US20260008768A1, “UREA DERIVATIVES FOR INHIBITING NLRP3 AND USES THEREOF” (VENTUS THERAPEUTICS U.S., INC., priority 2023, published 2026)

How the values were obtained:
human NLRP3 [1] = target: T1, human NLRP3 (Homo sapiens, UniProt Q96P20); assay: Human Whole Blood (hWB) NLRP3 Assay (LPS/ATP, IL-1β); assay type: cell-based; parameters: host or cells: human whole blood from healthy volunteers (A3)
Experimental: Human whole blood is drawn from healthy volunteers after obtaining written informed consent. Heparin lithium coated tubes are used to collect blood from volunteers. Blood samples are distributed on 96 well plates using 90 μl per well.
Priming procedure: Priming is performed by adding 5 μl of LPS (O26:B6; Sigma L-2654) at a final concentration of 1 μg/ml for 4.5 hours in a humidified incubator with 37° C., 5% CO2. Thirty minutes prior to NLRP3 activation, 5 μl of a 20× compound solution or vehicle (2% dimethylsulfoxide (DMSO)) is added to each well and plates were incubated on a shaker (450 rpm) in a humidified incubator with 37° C., 5% CO2.
Alternative priming procedure: Thirty minutes prior to LPS priming, 5 μl of a 20× compound solution or vehicle (2% dimethylsulfoxide (DMSO)) is added to each well and plates were incubated on a shaker (450 rpm) in a humidified incubator with 37° C., 5% CO2. Priming is performed by adding 5 μl of LPS (O26:B6; Sigma L-2654) at a final concentration of 1 μg/ml for 5 hours in a humidified incubator with 37° C., 5% CO2.
Activation is then performed by adding 3.3 μl of a 31×ATP solution per well. At the end of the 30 minutes stimulation, the plates are centrifuged (800 g, 10 min, room temperature) and the plasma from each well is frozen at −80° C. IL-1β levels in the supernatant were analyzed using a mesoscale discovery assay (MSD K151TUK) according to the manufacturers' instructions.
There is no detectable difference in assay results using the priming procedure versus the alternative priming procedure.
hWB NLRP3 IC50 assay results, as a measurement of whole blood potency, are provided in Table B. “A” activity=<1 uM; “B” activity=1-2 uM; “C” activity=>2-3 uM; “D” activity=>3 uM.

human NLRP3 [2] = target: T1, human NLRP3; assay: Human PBMC NLRP3 Assay (LPS priming, ATP stimulation, cytokine measurement); assay type: cell-based; parameters: host or cells: human PBMCs (A2); human whole blood from healthy volunteers (A3); conditions: human PBMC, LPS + ATP
Summary of the method: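 Human PBMCs (5×10^4/well) primed with 100 ng/ml LPS for 4 h, then given compound for 30 min and stimulated with 5 mM ATP for 1 h at 37° C. Supernatant cytokines measured on the Mesoscale platform to give IC50. For TNFα selectivity, compound was added 30 min before LPS priming.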

human NLRP3 [3] = target: T1, human NLRP3; assay: Scintillation Proximity (SPA) NLRP3 Assay, displacement of 3H-MCC950; assay type: binding; conditions: for IC50: displacement of 3H-MCC950 from human NLRP3
Summary of the method: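 Human NLRP3 (350 nM) preincubated 15 min at RT with compound (5% DMSO final) in HEPES pH 7.5 buffer with 100 μM ADP, then 125 nM 3H-MCC950 added for 60 min. Copper PVT SPA beads added; counts read 6 h later. Specific binding = signal minus no-protein wells, duplicates averaged; IC50 reported.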

T1 sequence (Q96P20 whole entry): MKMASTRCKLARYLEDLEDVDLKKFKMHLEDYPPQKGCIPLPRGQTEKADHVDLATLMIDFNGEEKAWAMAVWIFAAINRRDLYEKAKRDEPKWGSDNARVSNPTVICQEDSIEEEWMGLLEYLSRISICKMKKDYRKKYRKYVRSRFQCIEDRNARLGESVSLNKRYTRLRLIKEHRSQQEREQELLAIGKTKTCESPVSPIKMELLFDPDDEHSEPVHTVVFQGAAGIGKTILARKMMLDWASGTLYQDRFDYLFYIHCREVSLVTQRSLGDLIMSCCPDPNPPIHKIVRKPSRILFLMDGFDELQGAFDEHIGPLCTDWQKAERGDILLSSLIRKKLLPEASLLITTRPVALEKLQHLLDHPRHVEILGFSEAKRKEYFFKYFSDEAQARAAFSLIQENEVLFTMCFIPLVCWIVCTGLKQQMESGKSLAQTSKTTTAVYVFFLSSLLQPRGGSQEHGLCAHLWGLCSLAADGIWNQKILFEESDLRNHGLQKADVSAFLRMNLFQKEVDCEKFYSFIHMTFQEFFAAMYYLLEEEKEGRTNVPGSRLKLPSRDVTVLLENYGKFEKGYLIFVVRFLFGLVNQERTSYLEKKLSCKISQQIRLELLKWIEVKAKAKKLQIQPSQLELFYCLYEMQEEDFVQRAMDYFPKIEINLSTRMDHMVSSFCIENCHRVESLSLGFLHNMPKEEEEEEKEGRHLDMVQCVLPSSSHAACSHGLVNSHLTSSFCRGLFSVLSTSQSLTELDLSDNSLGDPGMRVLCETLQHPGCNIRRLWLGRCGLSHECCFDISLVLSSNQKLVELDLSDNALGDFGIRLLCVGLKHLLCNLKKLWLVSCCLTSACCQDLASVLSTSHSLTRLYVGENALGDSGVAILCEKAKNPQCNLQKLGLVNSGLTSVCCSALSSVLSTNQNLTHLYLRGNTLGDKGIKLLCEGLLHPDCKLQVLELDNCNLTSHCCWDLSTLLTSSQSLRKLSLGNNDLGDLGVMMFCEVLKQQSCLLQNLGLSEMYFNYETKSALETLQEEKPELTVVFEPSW

SMILES | IC50 (human NLRP3 [1]; Table B, activity class) [nM] | IC50 (human NLRP3 [2]; Table B, activity class) [nM] | IC50 (human NLRP3 [3]; Table B, activity class) [nM] | fold improvement in binding activity (SPA IC50) (human NLRP3 [3]; relative to Compound 27A*) [fold] | IC50 (human NLRP3 [1]; Table C) [nM] | IC50 (human NLRP3 [2]; Table C) [nM] | IC50 (human NLRP3 [3]; Table C) [nM]
C[C@@H]1CCN(c2nnn[nH]2)C[C@H](NC(=O)N(C)c2ccc(OC(F)(F)F)c(F)c2)C1 (single isomer, unassigned) [14A*] | 1000 to 2000 | 10 to 100 | < 1000 | – | – | – | –
C[C@@H]1C[C@@H](NC(=O)N(C)c2ccc(OC(F)F)c(OC(F)F)c2)[C@H]2CC[C@@H]1N2c1nnn[nH]1 (single isomer, unassigned) [64A*] | < 1000 | 10 to 100 | < 1000 | – | – | – | –
C[C@@H]1C[C@@H](NC(=O)N(C)c2ccc(OC(F)(F)F)c(F)c2F)[C@H]2CC[C@@H]1N2c1nnn[nH]1 (single isomer, unassigned) [59A*] | 2000 to 3000 | 100 to 500 | < 1000 | – | – | – | –
C[C@@H]1C[C@@H](NC(=O)N(C)c2ccc(OC(F)F)cc2)[C@H]2CC[C@@H]1N2c1nnn[nH]1 (single isomer, unassigned) [42A*] | < 1000 | < 10 | < 1000 | – | 290 | 4.1 | 65
C[C@@H]1C[C@@H](NC(=O)N(C)c2ccc(C3CC3)cc2)[C@H]2CC[C@@H]1N2c1nnn[nH]1 (single isomer, unassigned) [46A*] | < 1000 | < 10 | < 1000 | – | – | – | –
C[C@@H]1CCN(c2nnn[nH]2)C[C@H](NC(=O)N(C)c2ccc(Cl)c(F)c2)C1 (single isomer, unassigned) [12A*] | 2000 to 3000 | 10 to 100 | < 1000 | – | – | – | –
C[C@@H]1C[C@@H](NC(=O)N(C)c2ccc(OC(F)F)cc2F)[C@H]2CC[C@@H]1N2c1nnn[nH]1 (single isomer, unassigned) [57A*] | < 1000 | < 10 | < 1000 | – | 190 | 3.1 | 199
C[C@@H]1CCN(c2nnn[nH]2)C[C@H](NC(=O)N(C)c2ccc(Cl)cc2F)C1 (single isomer, unassigned) [5A*] | < 1000 | < 10 | < 1000 | > 19 | 36 | 4 | 71

Second part, led by results:

IC50 (human NLRP3 [1]; Table B, activity class) [nM] | IC50 (human NLRP3 [2]; Table B, activity class) [nM] | IC50 (human NLRP3 [3]; Table B, activity class) [nM] | fold improvement in binding activity (SPA IC50) (human NLRP3 [3]; relative to Compound 27A*) [fold] | SMILES | IC50 (human NLRP3 [1]; Table C) [nM] | IC50 (human NLRP3 [2]; Table C) [nM] | IC50 (human NLRP3 [3]; Table C) [nM]
< 1000 | < 10 | < 1000 | – | C[C@@H]1CCN(c2nnn[nH]2)C[C@H](NC(=O)N(C)c2c(F)cc(OC(F)(F)F)cc2F)C1 (single isomer, unassigned) [41A*] | – | – | –
1000 to 2000 | 10 to 100 | < 1000 | – | C[C@@H]1CCN(c2nnn[nH]2)C[C@H](NC(=O)N(C)c2ccc(OC(F)F)c(F)c2F)C1 (single isomer, unassigned) [40A*] | – | – | –
< 1000 | 10 to 100 | < 1000 | – | C[C@@H]1CCN(c2nnn[nH]2)C[C@H](NC(=O)N(C)c2ccc(C(F)(F)F)c(F)c2F)C1 (single isomer, unassigned) [21A*] | – | – | –
< 1000 | < 10 | < 1000 | – | C[C@@H]1CCN(c2nnn[nH]2)C[C@H](NC(=O)N(C)c2c(F)cc(OC(F)F)cc2F)C1 (single isomer, unassigned) [19A*] | – | – | –
1000 to 2000 | < 10 | < 1000 | – | C[C@@H]1CCN(c2nnn[nH]2)C[C@H](NC(=O)N(C)c2ccc(OC(F)F)cc2F)C1 (single isomer, unassigned) [17A*] | – | – | –
< 1000 | < 10 | < 1000 | – | C[C@@H]1CCN(c2nnn[nH]2)C[C@H](NC(=O)N(C)c2c(F)cc(C3CC3)cc2F)C1 (single isomer, unassigned) [20A*] | – | – | –
